Data: patent US6242478A, “Five member ring sulfenate esters and thiosulfinate esters” (Wake Forest University, priority 1999, dated 2001)
pEC50, pIC50: −log10 of the molar value. Read-outs that look alike come from different tables or passages of the source.

How the values were obtained:
[1] = tested on: HIV-1RF; conditions: cited from earlier work
[2] = tested on: CEM-SS cells; conditions: cited from earlier work
[3] = tested on: HIV-1ADA; conditions: fresh human monocyte/macrophage cultures, cited from earlier work
[4] = tested on: fresh human monocyte/macrophage cultures; conditions: toxicity; cited from earlier work
[5] = tested on: NCp7 protein; conditions: cited from earlier work; for ejection of zinc from NCp7: in words
[6] = biological target: T1, NCp7 (Human immunodeficiency virus type 1 group M subtype B, UniProt P12493); conditions: 50 μM, reference compounds; cited from earlier work
T1 construct: HIV-1 nucleocapsid protein (NCp7)

[7] = tested on: enzymatic activities of the viral replication cycle; conditions: in words; cited from earlier work
[8] = tested on: poly (ADP-ribose) polymerase (PARP); conditions: in words; cited from earlier work
[9] = tested on: Sp1; conditions: in words; cited from earlier work
[10] = tested on: GATA-1; conditions: in words; cited from earlier work
[11] = tested on: HeLa nuclear extract; conditions: CMV promoter, duck HBV sequence; cited from earlier work
[12] = tested on: GST alpha mRNA in BNL.CL2 cells; assay: GST alpha mRNA induction, Northern blot; assay type: cell-based, mouse; conditions: for GST α induction (mRNA): 80 μM, Northern blot; for GST α induction (mRNA) / activation at 100 µM: 24 hours; for activation at 100 µM: Mus musculus, BNL CL.2, BNL.CL2 cells, 100 micromolar, read-out: increase in GST alpha mRNA levels
Description: (§1) BNL.CL2 cells were treated with Oltipraz, compound 121 described above, and compound 123 described above. All compounds were applied to the cells at 100 micromolar concentration for 24 hours.
(§2) Cells were exposed to compounds at a final concentration of 80 μM for 24 hours. RNA was isolated and analyzed by Northern blotting for the expression of the indicated genes. Control cells were incubated with vehicle alone (0.4% DMSO).
(§3) Northern blot: Treatment of BNL.CL2 cells with 100 μM Oltipraz, ALH-556, and ALH-562, ALH-561, ED 13.4, ED 14.6, DCF 070, ALH-490
(§4) BNL.CL2 cells (normal mouse embryonic liver cell line) were plated at ~3×10^5 cells/ml, grown for 16-24 hours, and treated with 0 μM and 100 μM Oltipraz, ALH-556 (121), and ALH-562 (123) for 24 hours. All three compounds were dissolved in DMSO and the final DMSO concentration present in all treatment conditions was 0.2%. BNL.CL2 cells were harvested by trypsinization and total RNA was isolated using the Trizol reagent (Gibco BRL) according to the manufacturer's procedures. 15 μg of RNA were run on a 1.1% agarose/6.6% formaldehyde gel and transferred overnight onto nitrocellulose membranes by capillary transfer using 20×SSC as transfer buffer. Subsequent to RNA transfer, the nitrocellulose membrane was baked at 80° C. for 2 hours. RNA was analyzed using a radiolabeled mouse ferritin H and human GST-α c-DNA. A human β-actin probe was used as an internal standard. The c-DNA probes were labeled with [α^32 P]dCTP by a random prime labeling. Hybridization of the c-DNA probes to the nitrocellulose membrane was performed at 68° C. for 60 minutes using the Quick-Hyb solution (Stratagene). Membranes were subjected to phosphoimager analysis after hybridization.

[13] = tested on: DT-diaphorase (NQO1) mRNA; assay: NQO1 mRNA induction, Northern blot; assay type: cell-based, mouse; conditions: 80 μM, 24 hours
Description: as §1, §2, §3, §4

[14] = tested on: Ferritin H mRNA; assay: Ferritin H mRNA induction, Northern blot; assay type: cell-based, mouse; conditions: 80 μM, 24 hours
Description: as §1, §2, §3, §4

[15] = tested on: GST; conditions: rats; cited from earlier work
[16] = tested on: GST; conditions: mice; cited from earlier work
[17] = Dimitrov et al., 1992; cited from earlier work
[18] = tested on: HIV-1; conditions: Prochaska et al., 1993; cited from earlier work
[19] = tested on: phase II enzymes; conditions: in words; cited from earlier work
[20] = tested on: GST alpha mRNA in BNL.CL2 cells; assay: GST alpha mRNA induction, Northern blot; assay type: cell-based, mouse; conditions: 48 and 72h post treatment, in words

Structure (SMILES): O=S1(=O)C[C@H](O)[C@H](O)CS1 (relative stereo) [compound 8]
- pEC50 ([1]; CEM-SS cells, HIV-1RF, read-out: XTT assay EC50): 5.18
- activity against HIV-1 in XTT-based cytoprotection assay ([1]; in words): active
- pEC50 ([1]; two fold excess of glutathione (GSH), read-out: XTT assay EC50 with GSH): 4.19
- pIC50 ([2]; toxicity, CEM-SS cells, read-out: XTT assay IC50): 3.74
- pIC50 ([2]; two fold excess of glutathione (GSH), read-out: XTT assay IC50 with GSH): < 3.70
- pEC50 ([3]; HIV-1ADA): 5.10
- activity against replication of monocytotropic HIV-1ADA ([3]; in words): active
- pIC50 [4]: < 4.00
- ejection of zinc from NCp7 [5]: promoted ejection of zinc
- ejection of zinc from NCp7 ([5]; listed as NSC 624151 (8)): found to promote zinc ejection from the NCp7 protein
- TSQ NCp7 Assay ([5]; unit not given): 17
- NCp7 Trp37 Assay, % Decrease RFU/30 min, without GSH [6]: 17 % Decrease RFU/30 min
- effect on enzymatic activities of the viral replication cycle [7]: no other observable effect
- effect on PARP activity [8]: does not affect
- specific binding of Sp1 to DNA target [9]: does not affect poly (ADP-ribose) polymerase (PARP) activity or alter specific binding
- specific binding of GATA-1 to DNA target [10]: does not affect poly (ADP-ribose) polymerase (PARP) activity or alter specific binding
- in vitro transcription [11]: did not significantly alter

Structure (SMILES): Cc1c(-c2cnccn2)ssc1=S [Oltipraz]
- GST α induction (mRNA) [12]: +
- activation at 100 µM [12]: 340%
- NQO1 induction (mRNA) [13]: +
- Ferritin H induction (mRNA) [14]: +
- elevation of GST levels [15]: elevate levels of GST
- elevation of GST levels [16]: elevate levels of GST
- toxicities [17]: photosensitivity/heat intolerance, GI effects, and neurologic toxicities
- prevention of HIV-1 replication [18]: prevent HIV-1 replication
- induction of phase I / phase II enzymes [19]: monofunctional inducers

Structure (SMILES): CC1=C(C2=CCCCC2)S(=O)OC1 (centres unmarked) [compound 123, 4-methyl-5-cyclohexenyl-1,2-oxathiol-4-en-1-yl oxide]
- GST α induction (mRNA) [12]: +
- activation at 100 µM [12]: 430%
- inducing activity (GST, NQO1 and Ferritin H) ([12]; in words): high levels of inducing activity
- NQO1 induction (mRNA) [13]: +
- Ferritin H induction (mRNA) [14]: +
- time course of GST levels [20]: slight additional increases in GST levels
